The values below come from patent publication US6410571B1, “Heterocyclic carboxamide-containing thiourea inhibitors of herpes viruses containing a substituted phenylenediamine group” (American Home Products Corporation, priority 1998, dated 2002).

In brackets after ≈: the same amount, converted by molar mass.

The subject of experiment [1] is HCMV wild-type. The experiment can be described thus: HCMV yield assay. To be noted: human foreskin fibroblasts; for IC50: Human betaherpesvirus 5, Fibroblast, read-out: IC50 (ug/ml) HCMV. It is filed as cell-based, human cytomegalovirus. Here is the method: Yield assay. Monolayer cultures of human foreskin fibroblasts are infected with HCMV wild-type, typically at a multiplicity of infection equal to 0.2, in the presence of inhibitor compound (varying concentrations). At three days post-infection, total virus produced in these cultures (i.e. virus yield) is assessed by harvesting and titering the virus in 12-well plates of cultured human foreskin fibroblasts (done in the absence of inhibitor). Plaques are quantified at 2 weeks post-infection. An inhibitor of HCMV is identified by the reduction in titer of virus yield in the presence, compared to the titer in the absence of compound. In this assay, the relative anti-HCMV activity of an inhibitor is typically determined by calculating the IC50 or IC90 value, that is, the amount of compound required to reduce the virus yield by 50% or 90%, respectively. Table I describes IC50 data for compounds tested against HCMV.

Experiment [2] relates to HSV-1. The experiment can be described thus: HSV Antiviral (ELISA) Assay. To be noted: Vero cells; for IC50: Human alphaherpesvirus 1, read-out: IC50 (ug/ml) HSV. Format: cell-based, herpes simplex virus type 1. Here is the method:
Vero cells (ATCC #CCL-81) are plated on 96-well tissue culture plates at 3.5×10^4 cells per 100 μl tissue culture DMEM (Dulbecco's modified Eagle media) supplemented with 2% fetal bovine serum (FBS) in each well. After overnight incubation @37° C. (in 5% CO2) and 30 minutes prior to infection with HSV-1 (multiplicity of infection equal to 0.006), cells are either untreated, or treated with test compound (multiple concentrations) or reference standard drug control. After approximately 24 hours post-infection incubation @37° C. (in 5% CO2), cells are fixed for ELISA assay. The primary antibody is murine anti-HSV glycoprotein D monoclonal primary antibody and the secondary antibody is goat anti-mouse IgG linked to β-galactosidase. Thus the extent of viral replication is determined by assessing β-galactosidase activity by quantifying the generation of the 4-methyl umbeliiferone fluorescent cleavage product after addition of the methyl umbelliferyl-β-D-galactoside (Sigma #M1633) substrate on a microfluorimeter (365 nm for excitation and 450 nm for emission). Antiviral activity (IC50) of the test compound is determined by comparing the flourescence obtained in absence of compound to that obtained in the presence of compound.

The test system of experiment [3] is VZV strain Ellen. The experiment can be described thus: VZV Antiviral (ELISA) Assay. It is filed as cell-based, varicella-zoster virus. To be noted: human foreskin fibroblast cells; for inhibition at 10 µg/mL: Human alphaherpesvirus 3, read-out: % inhibition 10 ug/ml VZV; for inhibition at 10 µg/mL / % inhibition 10 ug/ml VZV: 10 ug/ml; for IC50: Human alphaherpesvirus 3, read-out: IC50 (ug/ml) VZV. The procedure: For the generation of stock VZV to be used in the assay, VZV strain Ellen (ATCC #VR-1367) is used to infect human foreskin fibroblast (HFF) cells at low multiplicity (less than 0.1) and incubated overnight at 37° C. in 5% CO2. After the overnight incubation, the mixture of uninfected and VZV-infected HFF infected cells are then harvested and added to each well of 96-well plates (3.5×10^4 cells in 100 μl DMEM supplemented with 2% FBS) which contain test compound or the reference standard drug control (in 100 μl DMEM supplemented with 2% FBS per well). These cells are incubated for three days at 37° C. in 5% CO2, then fixed for ELISA assay. The primary antibody is murine anti-VZV glycoprotein II monoclonal antibody (Applied Biosystems, Inc. #13-145-100) and the secondary antibody is goat anti-mouse IgG linked to β-galactosidase. Thus the extent of viral replication is determined by assessing β-galactosidase activity by quantifying the generation of the 4-methyl umbelliferone fluorescent cleavage product after addition of the methyl umbelliferyl-β-D-galactoside (Sigma #M1633) substrate on a microfluorimeter (365 nm for excitation and 450 nm for emission). Antiviral activity (IC50) of the test compound is determined by comparing the flourescence obtained in absence of compound to that obtained in the presence of compound.
For orientation: ELISA stands for enzyme-linked immunosorbent assay.

In the case of `COc1cc(OC)c(NC(=S)Nc2ccc(NC(=O)c3ccco3)cc2OC)cc1Cl` [Example 390, Furan-2-carboxylic acid {4-[3-(5-chloro-2,4-dimethoxy-phenyl)-thioureido]-3-methoxy-phenyl}-amide], the IC50 in experiment [1] was over 10 µg/mL; in experiment [2], 0.5 µg/mL (≈ 1.08 µM); in experiment [3] it was over 10 µg/mL. The inhibition at 10 µg/mL in experiment [3] turned out to be 61%.

Take `COc1cc(OC)c(NC(=S)Nc2ccc(NC(=O)c3ccco3)c(Cl)c2)cc1Cl` [Example 307, Furan-2-carboxylic acid {2-chloro-4-[3-(5-chloro-2,4-dimethoxy-phenyl)-thioureido]-phenyl}-amide]: the IC50 in experiment [1] is 5 µg/mL (≈ 10.7 µM); in experiment [2], over 10 µg/mL; in experiment [3], over 10 µg/mL. In addition, the inhibition at 10 µg/mL in experiment [3] was found to be 30%.

As to `COc1cc(OC)c(NC(=S)Nc2ccc(NC(=O)c3ccco3)c(C(=O)c3ccccc3)c2)cc1Cl` [Example 294, Furan-2-carboxylic acid {2-benzoyl-4-[3-(5-chloro-2,4-dimethoxy-phenyl)-thioureido]-phenyl}-amide], the IC50 in experiment [1] was over 10 µg/mL; in experiment [2], over 50 µg/mL; in experiment [3] it was over 10 µg/mL. Moreover, the inhibition at 10 µg/mL in experiment [3] was found to be 0%.

Turning to `COc1cc(OC)c(NC(=S)Nc2ccc(NC(=O)c3ccco3)cc2C(F)(F)F)cc1Cl` [Example 858, Furan-2-carboxylic acid {4-[3-(5-chloro-2,4-dimethoxy-phenyl)-thioureido]-3-trifluoromethyl-phenyl}-amide], the IC50 in experiment [1] was 2 µg/mL (≈ 4 µM); in experiment [2], 2.5 µg/mL (≈ 5 µM); in experiment [3], over 10 µg/mL. The inhibition at 10 µg/mL in experiment [3] stood at 26%.

Consider `COc1cc(OC)c(NC(=S)Nc2ccc(NC(=O)c3ccco3)c(OC)c2)cc1Cl` [Example 304, Furan-2-carboxylic acid {4-[3-(5-chloro-2,4-dimethoxy-phenyl)-thioureido]-2-methoxy-phenyl}-amide], for which the values for the IC50 in experiment [1], in experiment [2] and in experiment [3] were 7 µg/mL (≈ 15.2 µM), 8 µg/mL (≈ 17.3 µM) and 11 µg/mL (≈ 23.8 µM), respectively. Besides, in experiment [3], the inhibition at 10 µg/mL turned out to be 44%.

For `COc1cc(OC)c(NC(=S)Nc2cc(OC)c(NC(=O)c3ccco3)cc2C)cc1Cl` [Example 287, Furan-2-carboxylic acid {4-[3-(5-chloro-2,4-dimethoxy-phenyl)-thioureido]-2-methoxy-5-methyl-phenyl}-amide], the IC50 was over 50 µg/mL in experiment [1], 8 µg/mL (≈ 16.8 µM) in experiment [2] and over 10 µg/mL in experiment [3]. The inhibition at 10 µg/mL in experiment [3] was 5%.

On to `COc1cc(OC)c(NC(=S)Nc2cc(C)c(NC(=O)c3ccco3)cc2Cl)cc1Cl` [Example 328, Furan-2-carboxylic acid {5-chloro-4[3-(5-chloro-2,4-dimethoxy-phenyl)-thioureido]-2-methyl-phenyl}-amide], for which the IC50 in experiment [1], in experiment [2] and in experiment [3] was over 10 µg/mL in each case. Further, the inhibition at 10 µg/mL in experiment [3] was 44%.

For the molecule `COc1cc(OC)c(NC(=S)Nc2ccc(NC(=O)c3ccco3)cc2C)cc1Cl` [Example 296, Furan-2-carboxylic acid {4-[3-(5-chloro-2,4-dimethoxy-phenyl)-thioureido]-3-methyl-phenyl}-amide], the IC50 in experiment [1] was 8 µg/mL (≈ 17.9 µM); in experiment [2] it was 1.2 µg/mL (≈ 2.69 µM); in experiment [3], over 10 µg/mL. Besides, the inhibition at 10 µg/mL in experiment [3] is 48%.

For `COc1cc(OC)c(NC(=S)Nc2ccc(NC(=O)c3ccco3)c(C)c2)cc1Cl` [Example 311, Furan-2-carboxylic acid {4-[3-(5-chloro-2,4-dimethoxy-phenyl)-thioureido]-2-methyl-phenyl}-amide], the IC50 is 6 µg/mL (≈ 13.5 µM) in experiment [1], 12 µg/mL (≈ 26.9 µM) in experiment [2] and over 10 µg/mL in experiment [3]. Moreover, in experiment [3], the inhibition at 10 µg/mL is 13%.

On to `COc1cc(OC)c(NC(=S)Nc2cc(OC)c(NC(=O)c3ccco3)cc2OC)cc1Cl` [Example 276, Furan-2-carboxylic acid {4-[3-(5-chloro-2,4-dimethoxy-phenyl)-thioureido]-2,5-dimethoxy-phenyl}-amide], for which the IC50 in experiment [1] is over 10 µg/mL; in experiment [2] it was over 10 µg/mL; in experiment [3], 4 µg/mL (≈ 8.13 µM). Also, the inhibition at 10 µg/mL in experiment [3] was 75%.

With `COc1cc(OC)c(NC(=S)Nc2ccc(NC(=O)c3ccco3)c3ccccc23)cc1Cl` [Example 324, Furan-2-carboxylic acid {4-[3-(5-chloro-2,4-dimethoxy-phenyl)-thioureido]-naphthalen-1-yl}-amide], the results for the IC50 in experiment [1], in experiment [2] and in experiment [3] were 8 µg/mL (≈ 16.6 µM), 4 µg/mL (≈ 8.3 µM) and over 10 µg/mL, respectively. Besides, the inhibition at 10 µg/mL in experiment [3] came out at 24%.

Regarding `COc1cc(OC)c(NC(=S)Nc2ccc(NC(=O)c3ccco3)c(C#N)c2)cc1Cl` [Example 306, Furan-2-carboxylic acid {4-[3-(5-chloro-2,4-dimethoxy-phenyl)-thioureido]-2-cyano-phenyl}-amide], the IC50 was 2.5 µg/mL (≈ 5.47 µM) in experiment [1], over 10 µg/mL in experiment [2] and over 10 µg/mL in experiment [3]. Moreover, the inhibition at 10 µg/mL in experiment [3] was determined as 33%.

Take “5-[3-(5-Chloro-2,4-dimethoxy-phenyl)-thioureido]-2-[(furan-2-carbonyl)-amino]-benzoic acid [Example 339]”: in experiment [1], the “IC50 (ug/ml) HCMV” value was 50 µg/mL. The “IC50 (ug/ml) HSV” value in experiment [2] was over 50 µg/mL. In experiment [3], the “% inhibition 10 ug/ml VZV” value was 11% and the “IC50 (ug/ml) VZV” value is over 10 µg/mL.

On to “Furan-2-carboxylic acid {4-[3-(5-chloro-2,4-dimethoxy-phenyl)-thioureido]-3-cyano-phenyl}-amide [Example 382]”, for which, in experiment [1], the “IC50 (ug/ml) HCMV” value was over 10 µg/mL. The “IC50 (ug/ml) HSV” value in experiment [2] was over 10 µg/mL. For the same molecule, in experiment [3], the “% inhibition 10 ug/ml VZV” value was determined as 46% and the “IC50 (ug/ml) VZV” value was over 10 µg/mL.

On to `COc1cc(OC)c(NC(=S)Nc2ccc(NC(=O)c3ccco3)c(C(F)(F)F)c2)cc1Cl` [Example 308, Furan-2-carboxylic acid {4-[3-(5-chloro-2,4-dimethoxy-phenyl)-thioureido]-2-trifluoromethyl-phenyl}-amide], for which the values for the IC50 in experiment [1], in experiment [2] and in experiment [3] were 10 µg/mL (≈ 20 µM), 10 µg/mL (≈ 20 µM) and 4 µg/mL (≈ 8 µM), respectively. Also, the inhibition at 10 µg/mL in experiment [3] was 100%.

`COc1cc(OC)c(NC(=S)Nc2cc(O)c(NC(=O)c3ccco3)cc2Cl)cc1Cl` [Example 320, Furan-2-carboxylic acid {5-chloro-4-[3-(5-chloro-2,4-dimethoxy-phenyl)-thioureido]-2-hydroxy-phenyl}-amide]: the IC50 in experiment [1] is 8 µg/mL (≈ 16.6 µM); in experiment [2], 8 µg/mL (≈ 16.6 µM); in experiment [3], over 10 µg/mL. Also, the inhibition at 10 µg/mL in experiment [3] turned out to be 50%.

Regarding `COc1cc(OC)c(NC(=S)Nc2ccc(NC(=O)c3ccco3)c(C(=O)Nc3ccccc3)c2)cc1Cl` [Example 302, Furan-2-carboxylic acid {4-[3-(5-chloro-2,4-dimethoxy-phenyl)-thioureido]-2-phenylcarbamoyl-phenyl}-amide], the IC50 is over 10 µg/mL in experiment [1], 10 µg/mL (≈ 18.1 µM) in experiment [2] and over 10 µg/mL in experiment [3]. For the same molecule, in experiment [3], the inhibition at 10 µg/mL came out at 5%.

As to `COc1cc(OC)c(NC(=S)Nc2ccc(NC(=O)c3ccco3)cc2Cl)cc1Cl` [Example 356, Furan-2-carboxylic acid {3-chloro-4-[3-(5-chloro-2,4-dimethoxy-phenyl)thioureido]-phenyl}-amide], the values for the IC50 in experiment [1], in experiment [2] and in experiment [3] were 0.4 µg/mL (≈ 0.858 µM), 0.5 µg/mL (≈ 1.07 µM) and 1.9 µg/mL (≈ 4.07 µM), respectively. Moreover, in experiment [3], the inhibition at 10 µg/mL worked out at 72%.
